Reference: ChEMBL document CHEMBL4808193, “[11]-Chaetoglobosins from Pseudeurotium bakeri Induce G2/M Cell Cycle Arrest and Apoptosis in Human Cancer Cells” (J Nat Prod, 2021)
Where a name gives a salt, the structure may show the parent alone.

Columns and labels:
[1] = system: MCF7; test: Cytotoxicity against human MCF7 cells assessed as reduction in cell viability by MTT assay; format: functional, cell-based
[2] = system: A-427; test: Cytotoxicity against human A-427 cells assessed as reduction in cell viability by MTT assay; format: functional, cell-based
[3] = system: L02; test: Cytotoxicity against human L02 cells assessed as reduction in cell viability by MTT assay; format: cell-based
[4] = system: HT-29; test: Cytotoxicity against human HT-29 cells assessed as reduction in cell viability by MTT assay; format: functional, cell-based
[5] = system: HeLa; test: Cytotoxicity against human HeLa cells assessed as reduction in cell viability by MTT assay; format: functional, cell-based
[6] = system: HepG2; test: Cytotoxicity against human HepG2 cells assessed as reduction in cell viability by MTT assay; format: functional, cell-based
[7] = system: HCT-116; test: Cytotoxicity against human HCT-116 cells assessed as reduction in cell viability by MTT assay; format: functional, cell-based
[8] = system: A549; test: Cytotoxicity against human A549 cells assessed as reduction in cell viability by MTT assay; format: functional, cell-based

Structure (SMILES)	IC50 [1]	IC50 [2]	IC50 [3]	IC50 [4]	IC50 [5]	IC50 [6]	IC50 [7]	IC50 [8]
CO[C@@H]1CC(=O)C[C@@H](C)C/C=C/[C@H]2C=C(C)[C@@H](C)[C@H]3[C@H](Cc4c[nH]c5ccccc45)NC(=O)[C@]32C1=O	> 50 µM	> 50 µM	> 50 µM	43.8 µM	> 50 µM	44.4 µM	30.9 µM	23.3 µM
CO[C@@H]1/C=C\[C@@H](C)C/C=C/[C@H]2[C@H](O)C(C)=C(C)[C@H]3[C@H](Cc4c[nH]c5ccccc45)NC(=O)[C@@]23C(=O)C1	> 50 µM	> 50 µM	> 50 µM	> 50 µM	41.5 µM	> 50 µM	26.1 µM	21.5 µM
CC1=C(C)[C@H]2[C@H](Cc3c[nH]c4ccccc34)NC(=O)[C@]23C(=O)CCCC[C@@H](C)C/C=C/[C@H]3[C@@H]1O	> 50 µM	> 50 µM	46.3 µM	> 50 µM	18.9 µM	> 50 µM	> 50 µM	> 50 µM
CC(=O)O[C@@H]1CC(=O)C[C@@H](C)C/C=C/[C@H]2[C@H](O)C(C)=C(C)[C@H]3[C@H](Cc4c[nH]c5ccccc45)NC(=O)[C@@]23C1=O	> 50 µM	> 50 µM	> 50 µM	> 50 µM	> 50 µM	> 50 µM	21.2 µM	15.9 µM
C[C@H]1C/C=C/[C@H]2C(=O)[C@H](C)[C@@H](C)[C@H]3[C@H](Cc4c[nH]c5ccccc45)NC(=O)[C@]32C(=O)CCCC1	> 50 µM	> 50 µM	> 50 µM	> 50 µM	> 50 µM	> 50 µM	> 50 µM	> 50 µM
CC1=C[C@@H]2/C=C/C[C@H](C)CC(=O)[C@@H]3O[C@H]3C(=O)[C@]23C(=O)N[C@@H](Cc2c[nH]c4ccccc24)[C@@H]3[C@@H]1C	> 50 µM	> 50 µM	> 50 µM	40.4 µM	> 50 µM	37.3 µM	> 50 µM	44 µM
COc1cccc2c1C(=O)c1c(O)c3c(c(O)c1C2=O)C[C@@](O)(C(=O)CO)C[C@@H]3O[C@H]1C[C@H](N)[C@H](O)[C@H](C)O1 [DOXORUBICIN HYDROCHLORIDE]	–	–	0.7 µM	2.6 µM	–	0.4 µM	2.9 µM	–
C=C1[C@@H](C)[C@H]2[C@H](Cc3c[nH]c4ccccc34)NC(=O)[C@]23C(=O)CCCC[C@@H](C)C/C=C/[C@H]3[C@@H]1O	> 50 µM	> 50 µM	> 50 µM	> 50 µM	> 50 µM	> 50 µM	45.3 µM	40.4 µM
CC1=C[C@@H]2/C=C/C[C@H](C)CCCCC(=O)[C@]23C(=O)N[C@@H](Cc2c[nH]c4ccccc24)[C@@H]3[C@@H]1C	> 50 µM	13.8 µM	> 50 µM	> 50 µM	20.3 µM	> 50 µM	38.5 µM	> 50 µM
